Test [1] has as its target T1, full length recombinant Pim-3 protein (Homo sapiens, UniProt Q86V86).
T1 construct: by full length recombinant Pim-1, Pim-2, or Pim-3 protein; purchased Millipore (UK)
Description: Pim-3 enzyme assay (HTRF, phosphorylation of biotinylated-BAD (S112) peptide). The class given is biochemical. The conditions noted are these: read-out: Pim3 IC50. The gist of the method: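 HTRF read-out, streptavidin-APC plus Eu-labelled anti-phospho-BAD (S112) antibody, measures BAD peptide phosphorylation by full-length recombinant Pim-3. Buffer: 60 mM Hepes pH 7.0, 2 mM DTT, 0.05% BSA; EDTA (3 mM) stop. Percent of control per well, IC50 by 4-parameter logistic fit.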
In general terms: In TR-FRET formats the signal depends on donor and acceptor labels being close together.

Test [2] concerns the target T2, Pim-1 stably transfected into the U2OS human osteogenic sarcoma line (Homo sapiens, UniProt P11309).
T2 construct: expressed in transfected cells; host or cells: U2OS human osteogenic sarcoma line
Description: Pim cell assay, phospho-BAD normalized against total BAD, U2OS stably transfected with Pim-1. The class given is cell-based. Particulars: read-out: Pim1_Cell_IC50. A digest of the protocol:
(§1)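 Read-out is phospho-BAD relative to total BAD, by MSD electrochemiluminescence on lysates, expressed as % phosphoprotein = (2×phospho)/(phospho+total)×100. Engineered U2OS lines carrying stably transfected Pim-1 or Pim-2 received 10-point compound dilutions at 0.3% final DMSO after overnight culture at 37 °C; DMSO-only wells served as high control.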

In test [3] the target is T3, Pim-2 stably transfected into the U2OS human osteogenic sarcoma line (Homo sapiens, UniProt Q9P1W9).
T3 construct: expressed in transfected cells; host or cells: U2OS human osteogenic sarcoma line
T3 sequence (Q9P1W9 whole entry): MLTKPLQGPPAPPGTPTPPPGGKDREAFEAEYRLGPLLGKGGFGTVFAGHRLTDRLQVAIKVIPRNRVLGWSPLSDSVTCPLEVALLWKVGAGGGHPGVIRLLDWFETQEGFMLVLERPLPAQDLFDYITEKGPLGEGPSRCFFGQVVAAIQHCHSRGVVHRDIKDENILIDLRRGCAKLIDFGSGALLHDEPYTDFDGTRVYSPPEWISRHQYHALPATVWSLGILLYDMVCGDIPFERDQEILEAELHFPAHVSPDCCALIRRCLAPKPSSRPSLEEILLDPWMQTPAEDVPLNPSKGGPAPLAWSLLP
Description: Pim cell assay, phospho-BAD normalized against total BAD, U2OS stably transfected with Pim-2. Further: high dose 31.6 µM. The class given is cell-based. Particulars: read-out: Pim2_Cell_IC50. The gist of the method: as §1

In test [4] the target is T4, full length recombinant Pim-1 protein (Homo sapiens, UniProt P11309).
T4 construct: by full length recombinant Pim-1, Pim-2, or Pim-3 protein; hexahistidine tag followed by a thrombin cleavage site (N); made in house; host or cells: Sf9 (baculovirus) or E. coli (pET28)
T4 sequence (P11309 whole entry): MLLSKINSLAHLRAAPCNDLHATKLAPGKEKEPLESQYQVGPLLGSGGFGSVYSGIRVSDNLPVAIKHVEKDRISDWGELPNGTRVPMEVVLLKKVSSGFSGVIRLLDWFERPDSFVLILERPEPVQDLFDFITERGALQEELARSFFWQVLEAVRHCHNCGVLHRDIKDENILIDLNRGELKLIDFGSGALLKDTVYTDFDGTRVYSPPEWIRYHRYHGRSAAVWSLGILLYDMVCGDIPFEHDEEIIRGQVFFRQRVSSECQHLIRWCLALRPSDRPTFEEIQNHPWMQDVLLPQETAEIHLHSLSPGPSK
Kind of test: Pim-1 enzyme assay (HTRF, phosphorylation of biotinylated-BAD (S112) peptide). In kind it is biochemical. Particulars: enzyme assay, Pim-1; read-out: Pim_1_IC50. A digest of the protocol: (§2)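 Each full-length human Pim enzyme phosphorylates a biotinylated BAD (S112) peptide, and the product is sensed by Eu anti-phospho-BAD antibody with streptavidin-APC after quenching with 3 mM EDTA. Conditions: 60 mM Hepes pH 7.0, 0.05% BSA, 2 mM DTT.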

The target in test [5] is T5, full length recombinant Pim-2 protein (Homo sapiens, UniProt Q9P1W9).
T5 construct: by full length recombinant Pim-1, Pim-2, or Pim-3 protein; hexahistidine tag followed by a thrombin cleavage site (N); made in house; host or cells: Sf9 (baculovirus) or E. coli (pET28)
T5 sequence (Q9P1W9 whole entry): as the sequence (Q9P1W9 whole entry) above
Kind of test: Pim-2 enzyme assay (HTRF, phosphorylation of biotinylated-BAD (S112) peptide). The class given is biochemical. Particulars: enzyme assay, Pim-2; read-out: Pim2_IC50. A digest of the protocol: as §2

[6] abbreviates: U2OS cells stably transfected with Pim-1, phospho-BAD, high dose […].
[7] abbreviates: U2OS cells stably transfected with Pim-2, phospho-BAD, high dose […].

Structures are written as SMILES. pIC50: −log10 of the molar value. Read-outs that look alike come from different tables or passages of the source.

T2 sequence (P11309 whole entry): as the sequence (P11309 whole entry) above

For the molecule `Nc1cccc(-c2ccc3[nH]nc(-c4cncc(N5CCC(N)CC5)n4)c3c2)c1` [Example 81, 1-(6-(5-(3-aminophenyl)-1H-indazol-3-yl)-2-pyrazinyl)-4-piperidinamine], the pIC50 in test [1] is 8.52; in test [2] (setting [6]) it was 6.40; in test [3] (setting [7]) it was 5.14; in test [4] it was 8.70; in test [5], 7.54.
On to `O[C@H]1CCCN(c2cncc(-c3n[nH]c4ccc(-c5c(F)cccc5F)cc34)n2)C1` [Example 163, (3S)-1-(6-(5-(2,6-difluorophenyl)-1H-indazol-3-yl)-2-pyrazinyl)-3-piperidinol], for which the pIC50 in test [1] was 7.31; in test [2] (setting [6]), 5.79; in test [3] (setting [7]), under 4.50; in test [4], 7.24; in test [5], 6.01.
Take `NC1CCN(c2cncc(-c3n[nH]c4ccc(-c5ccccc5O)cc34)n2)CC1` [Example 72, 2-(3-(6-(4-amino-1-piperidinyl)-2-pyrazinyl)-1H-indazol-5-yl)phenol]: the pIC50 in test [1] is 8.30; in test [2] (setting [6]), 6.27; in test [3] (setting [7]), under 4.50; in test [4], 8.52; in test [5], 7.09.
For the molecule `CC(C)Oc1cncc(-c2ccc3[nH]cc(-c4ccnc(N)c4)c3c2)n1` [Example 28, 4-(5-(6-(1-methylethoxy)-2-pyrazinyl)-1H-indol-3-yl)-2-pyridinamine], the pIC50 in test [1] is 7.92; in test [2], 5.85; in test [3], 4.95; in test [4], 7.49; in test [5], 6.57.
Regarding `Fc1cccc(Cl)c1-c1ccc2[nH]cc(-c3cncc(O[C@@H]4CCCNC4)n3)c2c1` [Example 26, (R)-5-(2-chloro-6-fluorophenyl)-3-(6-(piperidin-3-yloxy)pyrazin-2-yl)-1H-indole bis(2,2,2-trifluoroacetate)], the pIC50 in test [1] is 8.22; in test [2] (setting [6]) it was 6.29; in test [3] (setting [7]), 5.43; in test [4], 8.40; in test [5], 7.64.
With `CC(C)Oc1cncc(-c2ccc3[nH]cc(-c4cncc(N(C)C)n4)c3c2)n1` [Example 230, N,N-dimethyl-6-(5-(6-(1-methylethoxy)-2-pyrazinyl)-1H-indol-3-yl)-2-pyrazinamine], the pIC50 was 7.30 in test [1]; 5.55 in test [2]; under 4.50 in test [3]; 7.05 in test [4]; 5.63 in test [5].
`COc1ccc2c(-c3ccc4[nH]nc(-c5cncc(N6CCC(N)CC6)n5)c4c3)ccnc2c1` [Example 101, 1-(6-(5-(7-methoxy-4-quinolinyl)-1H-indazol-3-yl)-2-pyrazinyl)-4-piperidinamine]: the pIC50 is 8.00 in test [1]; 6.57 in test [2] (setting [6]); under 4.50 in test [3] (setting [7]); 8.40 in test [4]; 7.26 in test [5].
The matching figures for `NC1CCN(c2cncc(-c3n[nH]c4ccc(-c5cc(C(=O)N6CCCCC6)ccc5F)cc34)n2)CC1` [Example 41, 1-(6-(5-(2-fluoro-5-(1-piperidinylcarbonyl)phenyl)-1H-indazol-3-yl)-2-pyrazinyl)-4-piperidinamine]: 7.59, 5.85, 5.07, 7.46 and 7.54.
Take `Nc1ncc(-c2ccc3[nH]nc(-c4cncc(N5CCC(N)CC5)n4)c3c2)cn1` [Example 97, 5-(3-(6-(4-amino-1-piperidinyl)-2-pyrazinyl)-1H-indazol-5-yl)-2-pyrimidinamine]: the pIC50 is 9.00 in test [1]; 5.52 in test [2] (setting [6]); under 4.50 in test [3] (setting [7]); 8.52 in test [4]; 7.57 in test [5].
In the case of `CC(C)Oc1cncc(-c2ccc3[nH]cc(-c4csc(-n5ccccc5=O)n4)c3c2)n1` [Example 227, 1-(4-(5-(6-(1-methylethoxy)-2-pyrazinyl)-1H-indol-3-yl)-1,3-thiazol-2-yl)-2(1H)-pyridinone], the pIC50 is 6.69 in test [1]; under 4.80 in test [2]; under 4.80 in test [3]; 7.00 in test [4]; under 5.52 in test [5].
For `Fc1cccc(F)c1-c1ccc2[nH]cc(-c3cncc(O[C@@H]4CCCNC4)n3)c2c1` [Example 23, (R)-5-(2,6-difluorophenyl)-3-(6-(piperidin-3-yloxy)pyrazin-2-yl)-1H-indole], the pIC50 was 8.40 in test [1]; 6.64 in test [2] (setting [6]); 5.30 in test [3] (setting [7]); 8.70 in test [4]; 8.05 in test [5].
In the case of `Fc1cccc(F)c1-c1ccc2[nH]cc(-c3cncc(NC4CCCNC4)c3)c2n1` (stereo not shown) [Example 33, 5-(5-(2,6-difluorophenyl)-1H-pyrrolo[3,2-b]pyridin-3-yl)-N-(piperidin-3-yl)pyridin-3-amine], the pIC50 in test [1] is 7.16; in test [2], 5.97; in test [3], under 4.50; in test [4], 7.59; in test [5] it was 6.61.
On to `c1cc(C2CC2)nc(-c2ccc3[nH]nc(-c4cncc(O[C@@H]5CCCNC5)n4)c3c2)n1` [Example 127, 5-(4-cyclopropyl-2-pyrimidinyl)-3-(6-((3R)-3-piperidinyloxy)-2-pyrazinyl)-1H-indazole], for which the pIC50 in test [1] is 8.22; in test [2] (setting [6]), 5.99; in test [3] (setting [7]) it was under 4.50; in test [4], 7.89; in test [5], 7.17.
In the case of `NC1CCN(c2cncc(-c3n[nH]c4ccc(-c5ccccn5)cc34)n2)CC1` [Example 88, 1-(6-(5-(2-pyridinyl)-1H-indazol-3-yl)-2-pyrazinyl)-4-piperidinamine], the pIC50 in test [1] was 7.24; in test [2] (setting [6]) it was 5.92; in test [3] (setting [7]), under 4.50; in test [4] it was 7.32; in test [5], 6.16.
`NC1CCN(c2cncc(-c3n[nH]c4ccc(-c5cc(=O)[nH]cc5Cl)cc34)n2)CC1` [Example 74, 4-(3-(6-(4-amino-1-piperidinyl)-2-pyrazinyl)-1H-indazol-5-yl)-5-chloro-2(1H)-pyridinone]: the pIC50 was 7.82 in test [1]; under 4.50 in test [2] (setting [6]); under 4.50 in test [3] (setting [7]); 7.85 in test [4]; 7.27 in test [5].
With `CC(C)(C)Nc1cncc(-c2n[nH]c3ccc(-c4c(F)cccc4F)cc23)n1` [Example 183, N-tert-butyl-6-(5-(2,6-difluorophenyl)-1H-indazol-3-yl)-2-pyrazinamine], the pIC50 was 7.36 in test [1]; 5.37 in test [2] (setting [6]); under 4.50 in test [3] (setting [7]); 7.36 in test [4]; 6.17 in test [5].
Consider `COc1cc(-c2ccc3[nH]nc(-c4cncc(N5CCC(N)CC5)n4)c3c2)c(F)cn1` [Example 70, 1-(6-(5-(5-fluoro-2-methoxy-4-pyridinyl)-1H-indazol-3-yl)-2-pyrazinyl)-4-piperidinamine], for which the pIC50 in test [1] was 8.40; in test [2] (setting [6]), 6.59; in test [3] (setting [7]), under 4.50; in test [4], 8.30; in test [5] it was 7.74.
In the case of `CC(C)(C)C(=O)Nc1cccc(-c2ccc3[nH]nc(-c4cncc(N5CCC(N)CC5)n4)c3c2)n1` [Example 93, N-(6-(3-(6-(4-amino-1-piperidinyl)-2-pyrazinyl)-1H-indazol-5-yl)-2-pyridinyl)-2,2-dimethylpropanamide], the pIC50 in test [1] is 7.09; in test [2] (setting [6]) it was 6.31; in test [3] (setting [7]), under 4.50; in test [4] it was 7.89; in test [5], under 6.00.
On the same counts, the results for `COc1ccc(F)c(-c2ccc3[nH]nc(-c4cncc(N5CCC(N)CC5)n4)c3c2)c1` [Example 61, 1-(6-(5-(2-fluoro-5-methoxyphenyl)-1H-indazol-3-yl)-2-pyrazinyl)-4-piperidinamine] are 8.22, 5.52, under 4.50, 8.00 and 7.19.
The matching figures for `NC1CCN(c2cncc(-c3n[nH]c4ccc(Br)cc34)n2)CC1` [Example 1, 1-(6-(5-bromo-1H-indazol-3-yl)pyrazin-2-yl)piperidin-4-amine]: 7.96, 6.10, 5.06, 7.51 and 7.64.

The values above are taken from US9090593B2, “Bicyclic compounds as Pim inhibitors” (AMGEN INC., priority 2010, dated 2015).
